Molecular target: NLRP3 inflammasome (Homo sapiens (Human), UniProt Q96P20)
Assay: Evaluation of NLRP3 inflammasome inhibitory activity (inhibition of IL-1β production in LPS/Nigericin-stimulated THP1-Null cells)
Type: cell-based
Conditions: IL-1β production in THP1-Null cells, PMA, LPS 1 μg/mL, Nigericin 7.5 μmol/L, AlphaLISA
Summary of the method: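 THP1-Null cells primed with 1 μg/mL LPS, then treated with test compound; supernatant IL-1β quantified by AlphaLISA. Inhibition calculated with blank wells as 100% and control wells as 0%.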

Sequence of NLRP3 inflammasome (Q96P20 whole entry): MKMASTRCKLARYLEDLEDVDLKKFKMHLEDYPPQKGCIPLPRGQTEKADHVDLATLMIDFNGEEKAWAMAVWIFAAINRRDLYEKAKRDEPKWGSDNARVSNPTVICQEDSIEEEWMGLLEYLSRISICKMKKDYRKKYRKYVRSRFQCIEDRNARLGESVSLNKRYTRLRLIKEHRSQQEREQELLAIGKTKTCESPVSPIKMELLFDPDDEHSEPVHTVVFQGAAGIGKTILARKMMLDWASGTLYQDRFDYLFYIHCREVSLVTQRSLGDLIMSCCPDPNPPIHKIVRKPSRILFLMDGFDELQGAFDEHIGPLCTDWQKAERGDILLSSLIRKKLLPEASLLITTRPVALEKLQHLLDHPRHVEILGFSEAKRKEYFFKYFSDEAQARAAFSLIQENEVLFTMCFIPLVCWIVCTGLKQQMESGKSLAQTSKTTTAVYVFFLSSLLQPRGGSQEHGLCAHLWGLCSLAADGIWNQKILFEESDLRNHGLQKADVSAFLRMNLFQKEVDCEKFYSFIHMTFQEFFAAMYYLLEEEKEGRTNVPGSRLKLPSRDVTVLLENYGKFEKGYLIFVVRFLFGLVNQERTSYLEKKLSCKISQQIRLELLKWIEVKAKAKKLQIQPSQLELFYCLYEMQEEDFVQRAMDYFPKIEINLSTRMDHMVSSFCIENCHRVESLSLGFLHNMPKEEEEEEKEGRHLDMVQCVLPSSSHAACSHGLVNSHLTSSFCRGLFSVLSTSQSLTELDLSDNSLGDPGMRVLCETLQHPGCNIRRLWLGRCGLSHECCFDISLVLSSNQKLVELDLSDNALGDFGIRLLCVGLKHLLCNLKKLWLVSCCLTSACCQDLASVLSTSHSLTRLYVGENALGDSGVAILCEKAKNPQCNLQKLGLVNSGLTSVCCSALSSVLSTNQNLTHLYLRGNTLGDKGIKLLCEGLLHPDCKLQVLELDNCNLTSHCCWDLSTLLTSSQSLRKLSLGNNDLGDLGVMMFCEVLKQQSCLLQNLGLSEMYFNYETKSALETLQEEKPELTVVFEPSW

Row | SMILES | IC50 [nM]
1 | Cc1cc(Br)ccc1-n1cc2c(=O)[nH]c(N3CC4CC(C3)O4)nc2n1 [Example 169] | 17
2 | Cc1c2c(=O)[nH]c(N3CCCC3)nc2nn1-c1ccc(C(F)(F)F)cc1Cl [Example 170] | 88
3 | COc1ccc(-n2cc3c(=O)[nH]c(N4CCCC4)nc3n2)c(C)c1 [Example 171] | 29
4 | Cc1cc(Br)ccc1-n1cc2c(=O)n(CC#N)c(N3CCOCC3)nc2n1 [Example 172] | 190
5 | Cc1cc(Br)ccc1-n1cc2c(=O)n(CC#N)c(N3CCN(S(C)(=O)=O)CC3)nc2n1 [Example 173] | 120
6 | Cc1cc(Br)cc(C(F)(F)F)c1-n1cc2c(=O)[nH]c(N3CCOCC3)nc2n1 [Example 174] | 12
7 | Cc1cc(C2CC2)cc(C(F)(F)F)c1-n1cc2c(=O)[nH]c(N3CCOCC3)nc2n1 [Example 175] | 13
8 | O=c1[nH]c(N2CCOCC2)nc2nn(-c3ccc(Cl)cc3C(F)(F)F)cc12 [Example 176] | 27
9 | O=c1[nH]c(N2CCOCC2)nc2nn(-c3ccc(C4CC4)cc3C(F)(F)F)cc12 [Example 177] | 5.6
10 | CC(C)(C)OC(=O)N1CC2CN(c3nc4nn(-c5ccc(C(F)(F)F)cc5Cl)cc4c(=O)[nH]3)CC2C1 (stereo not shown) [Example 179] | 27
11 | O=c1[nH]c(N2CC(CCO)C2)nc2nn(-c3ccc(C(F)(F)F)cc3Cl)cc12 [Example 180] | 35
12 | O=c1[nH]c(N2CC(F)C2)nc2nn(-c3ccc(C(F)(F)F)cc3Cl)cc12 [Example 181] | 17
13 | O=c1[nH]c(N2CC(O)C2)nc2nn(-c3ccc(C(F)(F)F)cc3Cl)cc12 [Example 182] | 79
14 | O=c1[nH]c(N2CC3(CC(O)C3)C2)nc2nn(-c3ccc(C(F)(F)F)cc3Cl)cc12 [Example 183] | 15
15 | O=c1[nH]c(NC2CCOCC2)nc2nn(-c3ccc(C(F)(F)F)cc3Cl)cc12 [Example 184] | 67
16 | CNc1nc2nn(-c3c(C)cc(Br)cc3C)cc2c(=O)[nH]1 [Example 185] | 5.6
17 | O=c1[nH]c(N2CC3CNCC3C2)nc2nn(-c3ccc(C(F)(F)F)cc3Cl)cc12 (stereo not shown) [Example 186] | 230
18 | CC(=O)N1CC2CN(c3nc4nn(-c5ccc(C(F)(F)F)cc5Cl)cc4c(=O)[nH]3)CC2C1 (stereo not shown) [Example 187] | 38
19 | O=c1[nH]c(N2CCOCC2)nc2nn(-c3c(F)cc(C(F)(F)F)cc3Cl)cc12 [Example 189] | 20
20 | O=c1[nH]c(N2CCOCC2)nc2nn(-c3c(Cl)cc(C(F)(F)F)cc3OCC3CC3)cc12 [Example 190] | 41
21 | Cc1cc(Br)ccc1-n1cc2c(=O)[nH]c(N3CC4(COC4)C3)nc2n1 [Example 191] | 35
22 | COC[C@@H]1CCN(c2nc3nn(-c4ccc(Br)cc4C)cc3c(=O)[nH]2)CCO1 [Example 192] | 32
23 | COC[C@H]1CCN(c2nc3nn(-c4ccc(Br)cc4C)cc3c(=O)[nH]2)CCO1 [Example 193] | 42
24 | Cc1cc(Br)cc(C)c1-n1cc2c(=O)[nH]c(N3C[C@@H]4C[C@H]3CO4)nc2n1 [Example 195] | 6.8

Row | SMILES | IC50 [nM]
25 | O=c1[nH]c(N2CCOCC2)nc2nn(-c3ccc(Br)cc3C3CC3)cc12 [Example 196] | 11
26 | Cc1cc(Br)cc(C)c1-n1cc2c(=O)[nH]c(N3C[C@H]4C[C@@H]3CO4)nc2n1 [Example 197] | 8
27 | Cc1cc(Br)cc(C)c1-n1cc2c(=O)[nH]c(N3CC(F)C3)nc2n1 [Example 198] | 8
28 | Cc1cc(Br)cc(C)c1-n1cc2c(=O)[nH]c(N3CC4(CC(O)C4)C3)nc2n1 [Example 199] | 6.8
29 | Cc1cc(OC(F)(F)F)cc(C)c1-n1cc2c(=O)[nH]c(N3CCOCC3)nc2n1 [Example 200] | 29
30 | O=c1[nH]c(N2CCOCC2)nc2nn(-c3ncc(C(F)(F)F)cc3Br)cc12 [Example 201] | 190
31 | Cc1cc(C2CC2)ncc1-n1cc2c(=O)[nH]c(N3CCOCC3)nc2n1 [Example 202] | 640
32 | COc1cc(Cl)ccc1-n1cc2c(=O)[nH]c(N3CCCC3)nc2n1 [Example 205] | 32
33 | O=c1[nH]c(N2CCOCC2)nc2nn(-c3ccc(Br)cc3OC(F)(F)F)cc12 [Example 206] | 12
34 | Cc1cc(C2CC2)cc(C)c1-n1cc2c(=O)[nH]c(N3C[C@@H]4C[C@H]3CO4)nc2n1 [Example 207] | 5.9
35 | O=c1[nH]c(N2CCOCC2)nc2nn(-c3ccc(C4CC4)cc3OC(F)(F)F)cc12 [Example 208] | 14
36 | Cc1cc(C2CC2)cc(C)c1-n1cc2c(=O)[nH]c(N3C[C@H]4C[C@@H]3CO4)nc2n1 [Example 209, 6-((1R,4R)-2-oxa-5-azabicyclo[2.2.1]heptan-5-yl)-2-(4-cyclopropyl-2,6-dimethylphenyl)-2,5-dihydro-4H-pyrazolo[3,4-d]pyrimidin-4-one] | 5.1
37 | O=c1[nH]c(N2CCOCC2)nc2nn(-c3ccc(C4CC4)cc3C3CC3)cc12 [Example 210] | 7.3
38 | Cc1cc(Br)cc(C)c1-n1cc2c(=O)[nH]c(N3CC4CC(C3)O4)nc2n1 [Example 211] | 4.6
39 | O=c1[nH]c(N2CCCC2)nc2nn(-c3ccc(Cl)cc3C(F)(F)F)cc12 [Example 218] | 5.7
40 | Cc1cc(Br)cc(C)c1-n1cc2c(=O)[nH]c(N3C4CC3CN(S(C)(=O)=O)C4)nc2n1 [Example 221] | 25
41 | Cc1cc(Br)cc(C)c1-n1cc2c(=O)[nH]c(N3CC4CC(C3)N4S(C)(=O)=O)nc2n1 [Example 222] | 18
42 | Cc1cc(Br)cc(C)c1-n1cc2c(=O)[nH]c(NCC3CC3)nc2n1 [Example 228] | 7.7
43 | [2H]C([2H])([2H])Nc1nc2nn(-c3c(C)cc(Br)cc3C)cc2c(=O)[nH]1 [Example 229] | 9.4
44 | [2H]C([2H])([2H])Nc1nc2nn(-c3c(C)cc(C4CC4)cc3C)cc2c(=O)[nH]1 [Example 231] | 7.7
45 | Cc1cc(C2CC2)cc(C)c1-n1cc2c(=O)[nH]c(N3CC4CC(C3)O4)nc2n1 [Example 232] | 6
46 | Cc1cccc(C)c1-n1cc2c(=O)[nH]c(N3CCOCC3)nc2n1 [Example 233] | 760
47 | CC(C)c1cc(C(F)(F)F)cnc1-n1cc2c(=O)[nH]c(N3CCOCC3)nc2n1 [Example 236] | 730
48 | Cc1cc(C(F)(F)F)cc(C)c1-n1cc2c(=O)[nH]c(N3CCOCC3)nc2n1 [Example 237] | 23

Row | SMILES | IC50 [nM]
49 | O=c1[nH]c(N2CCOCC2)nc2nn(-c3ccc(Br)cc3C(F)(F)F)cc12 [Example 241] | 11
50 | Cc1cc(C2CC2)ccc1-n1cc2c(=O)[nH]c(N3CCOCC3)nc2n1 [Example 242] | 24
51 | O=c1[nH]c(N2CCOCC2)nc2nn(-c3ccc(Br)cc3C(F)F)cc12 [Example 243] | 68
52 | O=c1[nH]c(N2CCOCC2)nc2nn(-c3ccc(C4CC4)cc3C(F)F)cc12 [Example 244] | 22
53 | Cc1cc(Br)cc(C)c1-n1cc2c(=O)[nH]c(N3CCN(C)CC3)nc2n1 [Example 246] | 15
54 | Cc1cc(C(F)(F)F)cc(C)c1-n1cc2c(=O)[nH]c(N3C[C@H]4C[C@@H]3CO4)nc2n1 [Example 249] | 3.3
55 | Cc1cc(C(F)(F)F)cc(C)c1-n1cc2c(=O)[nH]c(N3C[C@@H]4C[C@H]3CO4)nc2n1 [Example 250] | 8.9
56 | COc1cc(C)c(-n2cc3c(=O)[nH]c(N4CCOCC4)nc3n2)c(C)c1 [Example 253] | 24
57 | Cc1cc(Br)cc(F)c1-n1cc2c(=O)[nH]c(N3CCOCC3)nc2n1 [Example 254] | 14
58 | Cc1cc(C2CC2)cc(F)c1-n1cc2c(=O)[nH]c(N3CCOCC3)nc2n1 [Example 255] | 6.2
59 | O=c1[nH]c(N2CCOCC2)nc2nn(-c3c(O)cc(C(F)(F)F)cc3Cl)cc12 [Example 257] | 69
60 | C[C@@H]1COCCN1c1nc2nn(-c3ccc(Br)cc3C(F)(F)F)cc2c(=O)[nH]1 [Example 258] | 23
61 | O=c1[nH]c(N2C[C@H]3C[C@@H]2CO3)nc2nn(-c3ccc(Br)cc3C(F)(F)F)cc12 [Example 259] | 23
62 | O=c1[nH]c(N2C[C@@H]3C[C@H]2CO3)nc2nn(-c3ccc(Br)cc3C(F)(F)F)cc12 [Example 260] | 17
63 | C[C@@H]1COCCN1c1nc2nn(-c3ccc(C4CC4)cc3C(F)(F)F)cc2c(=O)[nH]1 [Example 261] | 5.5
64 | O=c1[nH]c(N2C[C@H]3C[C@@H]2CO3)nc2nn(-c3ccc(C4CC4)cc3C(F)(F)F)cc12 [Example 262] | 9.8
65 | O=c1[nH]c(N2C[C@@H]3C[C@H]2CO3)nc2nn(-c3ccc(C4CC4)cc3C(F)(F)F)cc12 [Example 263] | 8.6
66 | Cc1cc(-n2cc3c(=O)[nH]c(N4CCOCC4)nc3n2)c(C)cc1Cl [Example 265] | 350
67 | Cc1cc(Br)cc(C)c1-n1cc2c(=O)[nH]c(NCC(F)(F)F)nc2n1 [Example 266] | 14
68 | Cc1cc(Br)cc(C)c1-n1cc2c(=O)[nH]c(NCCF)nc2n1 [Example 267] | 6.5
69 | COCc1cc(Br)ccc1-n1cc2c(=O)[nH]c(N3CCOCC3)nc2n1 [Example 268] | 34
70 | Cc1cc(C2CCC2)cc(C)c1-n1cc2c(=O)[nH]c(N3CCOCC3)nc2n1 [Example 270] | 83

Same assay, conditions: IL-1β production in THP1-Null cells; test compound 0.0024 μM

Row | SMILES | inhibition at 0.0024 µM [%]
71 | CCNc1nc2nn(-c3c(C)cc(Br)cc3C)cc2c(=O)[nH]1 [Example 227] | 52
72 | Cc1cc(Br)cc(C)c1-n1cc2c(=O)[nH]c(NC3CC3)nc2n1 [Example 230] | 60
73 | Cc1cc(Br)cc(C)c1-n1cc2c(=O)[nH]c(NC(C)C)nc2n1 [Example 235] | 52
74 | Cc1cc(C(F)(F)F)cc(C)c1-n1cc2c(=O)[nH]c(N3CCOC[C@H]3C)nc2n1 [Example 251] | 65

Same assay, conditions: IL-1β production in THP1-Null cells; test compound 2.4 μM

Row | SMILES | inhibition at 2.4 µM [%]
75 | O=c1[nH]c(N2CCOCC2)nc2nn(-c3c(Cl)cc(C(F)(F)F)cc3N3CCOCC3)cc12 [Example 256] | 40
76 | COc1ccc(CNc2cc(C(F)(F)F)cc(Cl)c2-n2cc3c(=O)[nH]c(N4CCOCC4)nc3n2)c(OC)c1 [Example 269] | 25
